From patent US20240252697A1, “INACTIVATION OF PATHOGENS IN EX VIVO BLOOD PRODUCTS IN STORAGE BAGS USING VISIBLE LIGHT” (priority 2015, published 2024)
Marks after values point to notes of the source that are not given here.

System: feline calicivirus (FCV)
Assay: 405 nm light inactivation of FCV suspended in supplemented minimal medium, counted by plaque assay on FEA cells
Format: cell-based, feline calicivirus vaccine strain F9

Cc1cc2nc3c(=O)[nH]c(=O)nc-3n(C[C@H](O)[C@H](O)[C@H](O)CO)c2cc1C [Riboflavin]
Log10 reduction/inactivation of FCV (FCV in MM plus components at DMEM concentrations, after): 1.3 Log10
Exposed Viral Population (±St Dev) (FCV in minimal media plus photosensitive components at DMEM concentrations, 155 mW cm^−2, mean count n = 3 ± SD): 3.77 ± 0.61
Log10 Reduction (FCV in minimal media plus photosensitive components, 155 mW cm^−2, exposed vs non-exposed control, asterisk = P ≤ 0.05): 1.28* Log10
